According to article PMC11144196, “Structural basis for human mitochondrial tRNA maturation” (Nature Communications, 2024):

Experiments:
TRNT1 [1] = target: T1, TRNT1 (Homo sapiens, UniProt Q96Q11); experiment: differential scanning fluorimetry (SYPRO Orange); format: binding; conditions: 5 uM protein, pH 7.5, 150 mM NaCl; thermal stabilisation
T1 construct: residues 42-434, no mitochondrial transport signal; N-terminal His6-TEV tag cleaved; E. coli KRX
T1 sequence (Q96Q11 42-434): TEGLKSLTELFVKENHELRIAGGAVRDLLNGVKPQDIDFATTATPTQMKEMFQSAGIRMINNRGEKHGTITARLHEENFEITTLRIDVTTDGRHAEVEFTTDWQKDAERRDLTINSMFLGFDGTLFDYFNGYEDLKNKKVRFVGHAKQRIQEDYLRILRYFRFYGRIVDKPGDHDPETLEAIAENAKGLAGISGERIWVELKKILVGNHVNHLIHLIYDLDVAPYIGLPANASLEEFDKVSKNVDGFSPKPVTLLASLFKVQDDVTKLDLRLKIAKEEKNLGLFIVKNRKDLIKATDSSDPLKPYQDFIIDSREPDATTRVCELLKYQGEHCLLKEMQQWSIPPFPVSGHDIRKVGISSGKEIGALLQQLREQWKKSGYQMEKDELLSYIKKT

TRNT1 [2] = target: T1, TRNT1; experiment: cryo-EM structure; format: binding; conditions: TRNT1 active site; complex with TRMT10C(SAH)/SDR5C1(NADH)/tRNA-Ile; 0.5 mM CDP, pH 8.0
[3] = target: T2, TRMT10C/SDR5C1 complex (NADH site in SDR5C1) (Homo sapiens, UniProt Q99714); experiment: differential scanning fluorimetry (SYPRO Orange); format: binding; conditions: 5 uM protein, pH 7.5, 150 mM NaCl; thermal stabilisation
T2 construct: gene HSD17B10; SDR5C1 residues 1-261 co-expressed with TRMT10C residues 40-403 in E. coli; SDR5C1 tetramer; HisTrap purified; with tRNA methyltransferase 10 homolog C
T2 sequence (Q99714 1-261): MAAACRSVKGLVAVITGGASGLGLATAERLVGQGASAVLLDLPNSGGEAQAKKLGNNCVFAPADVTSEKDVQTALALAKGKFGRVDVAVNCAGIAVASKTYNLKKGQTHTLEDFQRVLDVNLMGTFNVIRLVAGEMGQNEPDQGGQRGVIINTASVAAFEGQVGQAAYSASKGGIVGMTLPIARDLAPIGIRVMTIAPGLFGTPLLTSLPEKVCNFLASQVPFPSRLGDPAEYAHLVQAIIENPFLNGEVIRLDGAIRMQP
T2 sequence (Q7L0Y3 40-403 partner): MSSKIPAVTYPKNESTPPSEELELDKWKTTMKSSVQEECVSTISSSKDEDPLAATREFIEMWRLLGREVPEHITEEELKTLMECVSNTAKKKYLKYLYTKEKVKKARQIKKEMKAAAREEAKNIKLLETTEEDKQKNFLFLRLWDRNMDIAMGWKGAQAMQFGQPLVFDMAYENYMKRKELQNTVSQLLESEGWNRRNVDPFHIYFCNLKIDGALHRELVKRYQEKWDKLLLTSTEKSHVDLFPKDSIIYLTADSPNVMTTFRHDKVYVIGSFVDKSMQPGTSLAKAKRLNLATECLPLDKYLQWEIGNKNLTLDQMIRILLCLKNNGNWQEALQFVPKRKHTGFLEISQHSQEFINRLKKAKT

[4] = target: T3, TRMT10C/SDR5C1 complex (SAM/SAH site in TRMT10C) (Homo sapiens, UniProt Q7L0Y3); experiment: cryo-EM structure; format: binding; conditions: methyltransferase active site of TRMT10C; with NADH and pre-tRNA-Ile (8CBO); also with PRORP D479A (8CBK), ELAC2 H548A (8CBL) or TRNT1 (8CBM)
T3 construct: TRMT10C residues 40-403 (no mitochondrial transport signal) co-expressed with SDR5C1 residues 1-261 in E. coli; 2:4 TRMT10C:SDR5C1; HisTrap purified; with 3-hydroxyacyl-CoA dehydrogenase type-2
T3 sequence (Q7L0Y3 40-403): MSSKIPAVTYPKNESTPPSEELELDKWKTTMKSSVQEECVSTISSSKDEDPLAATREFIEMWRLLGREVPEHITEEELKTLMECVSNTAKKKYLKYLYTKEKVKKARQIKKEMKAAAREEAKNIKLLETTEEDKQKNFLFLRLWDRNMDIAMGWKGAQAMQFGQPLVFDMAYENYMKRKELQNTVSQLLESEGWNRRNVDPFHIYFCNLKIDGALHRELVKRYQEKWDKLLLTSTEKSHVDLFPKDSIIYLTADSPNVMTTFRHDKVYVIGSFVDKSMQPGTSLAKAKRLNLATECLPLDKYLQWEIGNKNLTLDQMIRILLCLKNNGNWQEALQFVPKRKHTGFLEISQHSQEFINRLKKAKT
T3 sequence (Q99714 1-261 partner): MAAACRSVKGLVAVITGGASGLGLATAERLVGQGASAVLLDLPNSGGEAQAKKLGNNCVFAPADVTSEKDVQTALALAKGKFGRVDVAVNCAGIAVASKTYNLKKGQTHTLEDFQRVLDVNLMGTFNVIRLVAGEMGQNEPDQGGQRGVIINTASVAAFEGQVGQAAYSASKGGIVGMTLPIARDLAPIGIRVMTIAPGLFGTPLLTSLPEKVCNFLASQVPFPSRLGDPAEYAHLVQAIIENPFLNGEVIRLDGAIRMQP

[5] = target: T3, TRMT10C/SDR5C1 complex (SAM/SAH site in TRMT10C); experiment: differential scanning fluorimetry (SYPRO Orange); format: binding; conditions: 5 uM protein, pH 7.5, 150 mM NaCl; thermal stabilisation
[6] = target: T3, TRMT10C/SDR5C1 complex (SAM/SAH site in TRMT10C); experiment: 3H-methyl transfer to pre-tRNA, scintillation counting; format: biochemical; conditions: pre-tRNA-Ile (G9) or pre-tRNA-His-Ser (A9), pH 8.5, 5 mM MgCl2, 37 °C; labelled compound
[7] = target: T4, ELAC2 H548A (residues 31-826) (human, UniProt Q9BQ52 31-826, H548A); experiment: cryo-EM structure; Complex 3: 1 uM TRMT10C/SDR5C1, 10 uM SAH, 10 uM NADH, 5 uM pre-tRNA^His(0,Ser), then 5 uM ELAC2 H548A; 50 mM Tris pH 8.0, 100 mM NaCl, 1 mM TCEP; ELAC2 sits on the pre-tRNA held by the subcomplex; conditions: both partners purified
T4 construct: human ELAC2 (long-form RNase Z), UniProt Q9BQ52, residues 31-826; pET28a-derived vector, His6-TEV site; treated with TEV protease; also called mt-RNase Z; source: E. coli KRX, purified like WT (HisTrap, Resource Q, TEV, SEC); not shown: His6, N-terminal, cleaved
T4 sequence (looked up): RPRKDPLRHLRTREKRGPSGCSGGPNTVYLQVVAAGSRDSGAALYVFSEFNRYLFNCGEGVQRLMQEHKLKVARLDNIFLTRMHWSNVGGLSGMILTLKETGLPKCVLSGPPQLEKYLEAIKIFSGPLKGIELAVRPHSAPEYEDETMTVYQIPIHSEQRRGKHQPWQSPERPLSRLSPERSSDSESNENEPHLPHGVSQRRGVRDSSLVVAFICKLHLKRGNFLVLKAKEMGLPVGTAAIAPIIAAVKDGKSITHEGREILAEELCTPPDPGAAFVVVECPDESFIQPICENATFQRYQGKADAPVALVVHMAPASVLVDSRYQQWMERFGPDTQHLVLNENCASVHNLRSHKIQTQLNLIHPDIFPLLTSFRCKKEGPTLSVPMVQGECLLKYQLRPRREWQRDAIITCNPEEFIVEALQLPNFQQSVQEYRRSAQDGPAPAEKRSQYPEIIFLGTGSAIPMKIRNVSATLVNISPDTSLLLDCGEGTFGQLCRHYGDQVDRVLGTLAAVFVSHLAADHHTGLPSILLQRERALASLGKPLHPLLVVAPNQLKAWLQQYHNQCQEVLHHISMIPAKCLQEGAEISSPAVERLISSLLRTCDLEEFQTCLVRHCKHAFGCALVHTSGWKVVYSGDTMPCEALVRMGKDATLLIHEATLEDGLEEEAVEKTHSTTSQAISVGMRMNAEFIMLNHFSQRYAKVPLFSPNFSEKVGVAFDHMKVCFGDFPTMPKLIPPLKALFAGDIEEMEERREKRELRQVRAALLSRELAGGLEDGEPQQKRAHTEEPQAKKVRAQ

[8] = target: T5, PRORP D479A (residues 45-583) (human, UniProt O15091 45-583, D479A); experiment: cryo-EM structure; Complex 2: 4 uM TRMT10C/SDR5C1, 40 uM SAH, 40 uM NADH, 20 uM pre-tRNA^His-Ser, then 10 uM PRORP D479A; 50 mM Tris pH 8.0, 100 mM NaCl, 1 mM TCEP; PRORP sits on the pre-tRNA held by the subcomplex; conditions: both partners purified
T5 construct: human PRORP (protein-only RNase P endoribonuclease), UniProt O15091, residues 45-583; pET28a-derived vector, His6-TEV site; treated with TEV protease; source: E. coli BL21(DE3) Rosetta, purified like WT (HisTrap, TEV, SEC); not shown: His6, N-terminal, cleaved
T5 sequence (looked up): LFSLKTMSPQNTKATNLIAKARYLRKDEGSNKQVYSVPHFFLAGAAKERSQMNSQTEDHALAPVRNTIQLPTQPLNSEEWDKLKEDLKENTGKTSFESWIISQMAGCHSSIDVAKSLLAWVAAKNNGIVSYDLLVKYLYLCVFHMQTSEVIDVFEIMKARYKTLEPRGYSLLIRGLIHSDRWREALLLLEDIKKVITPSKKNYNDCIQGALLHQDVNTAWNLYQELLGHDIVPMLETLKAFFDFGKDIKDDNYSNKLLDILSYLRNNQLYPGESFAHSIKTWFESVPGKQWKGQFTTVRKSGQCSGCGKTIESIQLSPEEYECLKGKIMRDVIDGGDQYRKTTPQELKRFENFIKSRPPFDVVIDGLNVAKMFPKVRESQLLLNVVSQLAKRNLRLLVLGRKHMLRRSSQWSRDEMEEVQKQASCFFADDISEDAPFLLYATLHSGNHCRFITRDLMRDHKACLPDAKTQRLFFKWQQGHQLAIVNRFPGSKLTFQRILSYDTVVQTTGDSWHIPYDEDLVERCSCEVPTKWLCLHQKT

Nc1ncnc2c1ncn2[C@@H]1O[C@H](COP(=O)(O)OP(=O)(O)OP(=O)(O)O)[C@@H](O)[C@H]1O [ATP]
Tm (TRNT1 [1]): CTP, ATP or CDP to TRNT1 stabilised these enzymes

Nc1ccn([C@@H]2O[C@H](COP(=O)(O)OP(=O)(O)O)[C@@H](O)[C@H]2O)c(=O)n1 [CDP]
cryo-EM structure (TRNT1 [2]): a molecule of CDP that is likely π-stacked with the substrate A73 nucleotide | Tm (TRNT1 [1]): CTP, ATP or CDP to TRNT1 stabilised these enzymes

Nc1ccn([C@@H]2O[C@H](COP(=O)(O)OP(=O)(O)OP(=O)(O)O)[C@@H](O)[C@H]2O)c(=O)n1 [CTP]
Tm (TRNT1 [1]): CTP, ATP or CDP to TRNT1 stabilised these enzymes

NC(=O)C1=CN([C@@H]2O[C@H](COP(=O)(O)OP(=O)(O)OC[C@H]3O[C@@H](n4cnc5c(N)ncnc54)[C@H](O)[C@@H]3O)[C@@H](O)[C@H]2O)C=CC1 [NADH]
Tm [3]: NADH to SDR5C1 and CTP, ATP or CDP to TRNT1 stabilised these enzymes

Nc1ncnc2c1ncn2[C@@H]1O[C@H](CSCC[C@H](N)C(=O)O)[C@@H](O)[C@H]1O [SAH]
cryo-EM structure [4]: In all the structures, the TRMT10C catalytic pocket contains SAH | Tm [5]: addition of co-factors or co-factor analogues, i.e. SAH to TRMT10C

C[S+](CC[C@H](N)C(=O)O)C[C@H]1O[C@@H](n2cnc3c(N)ncnc32)[C@H](O)[C@@H]1O (stereo partly shown) [SAM]
3H-methyl transfer to pre-tRNA, scintillation counting [6]: Methylation assays, using ^3H-SAM as methyl donor, showed that the TRMT10C/SDR5C1 complex methylates

B1: TRMT10C (residues 40-403, without the mitochondrial transport signal) (enzyme, human, UniProt Q7L0Y3 40-403, looked up)
chain: MSSKIPAVTYPKNESTPPSEELELDKWKTTMKSSVQEECVSTISSSKDEDPLAATREFIEMWRLLGREVPEHITEEELKTLMECVSNTAKKKYLKYLYTKEKVKKARQIKKEMKAAAREEAKNIKLLETTEEDKQKNFLFLRLWDRNMDIAMGWKGAQAMQFGQPLVFDMAYENYMKRKELQNTVSQLLESEGWNRRNVDPFHIYFCNLKIDGALHRELVKRYQEKWDKLLLTSTEKSHVDLFPKDSIIYLTADSPNVMTTFRHDKVYVIGSFVDKSMQPGTSLAKAKRLNLATECLPLDKYLQWEIGNKNLTLDQMIRILLCLKNNGNWQEALQFVPKRKHTGFLEISQHSQEFINRLKKAKT
notes: human TRMT10C, tRNA methyltransferase of mitochondrial RNase P, UniProt Q7L0Y3, residues 40-403; The subcomplex was purified on a HisTrap column; also called MTase; source: E. coli BL21(DE3) Rosetta, co-expressed with SDR5C1, purified (HisTrap, SEC, heparin, SEC)
binding result [7]: binds | binding result [8]: binds
